Experimental data reported in ChEMBL document CHEMBL2396618, “Macrocyclic inhibitors of 3C and 3C-like proteases of picornavirus, norovirus, and coronavirus” (Bioorg Med Chem Lett, 2013).

Legend:
[1] = target: Genome polyprotein (Coxsackievirus B3 (strain Nancy), UniProt P03313); assay: Inhibition of Coxsackievirus B3 Nancy 3Cpro
[2] = target: Replicase polyprotein 1a (Severe acute respiratory syndrome-related coronavirus, UniProt P0C6U8); assay: Inhibition of SARS coronavirus 3CLpro using Dabcyl-KTSAVLQ/SGFRKME-Edans as substrate preincubated for 30 mins followed by substrate addition by FRET assay
[3] = Inhibition of norovirus 3CLpro using Edans-DFHLQ/GP-Dabcyl as substrate preincubated for 30 mins followed by substrate addition by FRET assay

Sequence of Genome polyprotein (P03313 1541-1723 limits assumed): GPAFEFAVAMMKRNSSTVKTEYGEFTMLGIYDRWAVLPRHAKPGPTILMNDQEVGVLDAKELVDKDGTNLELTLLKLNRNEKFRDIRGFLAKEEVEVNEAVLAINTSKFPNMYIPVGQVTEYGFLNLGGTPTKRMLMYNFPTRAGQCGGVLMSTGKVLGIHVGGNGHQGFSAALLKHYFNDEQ

Compound: CC(C)C[C@@H]1NC(=O)[C@@H](NC(=O)OCc2ccccc2)Cc2cn(nn2)CCCNC(=O)CC[C@@H](C=O)NC1=O
- IC50 [1]: 1.8 µM
- IC50 [2]: 15.5 µM
- IC50 [3]: 5.1 µM
